Measurements taken from article PMC10954709, “Structure of an open KATP channel reveals tandem PIP2 binding sites mediating the Kir6.2 and SUR1 regulatory interface” (Nature Communications, 2024).

Assays:
SUR1/Kir6.2^Q52R channel = molecular target: T1, SUR1/Kir6.2^Q52R channel (UniProt P70673+Q09427, Q52R); experiment: ATP inhibition, inside-out patch-clamp recording, COSm6 cells; assay type: biochemical, rat Kir6.2, hamster SUR1; settings: for % current: mean, relative to maximum current in K-INT
T1 construct: expressed in transfected cells; host or cells: COSm6
T1 sequence (P70673 whole entry Q52R): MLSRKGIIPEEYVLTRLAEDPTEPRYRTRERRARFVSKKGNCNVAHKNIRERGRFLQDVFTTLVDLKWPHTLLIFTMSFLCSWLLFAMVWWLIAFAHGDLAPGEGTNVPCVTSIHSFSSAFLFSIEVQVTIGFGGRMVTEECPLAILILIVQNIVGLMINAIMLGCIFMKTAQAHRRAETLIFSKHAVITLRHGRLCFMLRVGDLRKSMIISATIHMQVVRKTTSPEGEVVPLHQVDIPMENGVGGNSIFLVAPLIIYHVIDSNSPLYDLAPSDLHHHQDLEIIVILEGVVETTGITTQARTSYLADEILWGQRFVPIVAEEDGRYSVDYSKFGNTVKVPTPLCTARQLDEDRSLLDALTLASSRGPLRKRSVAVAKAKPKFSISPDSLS
T1 sequence (Q09427 whole entry): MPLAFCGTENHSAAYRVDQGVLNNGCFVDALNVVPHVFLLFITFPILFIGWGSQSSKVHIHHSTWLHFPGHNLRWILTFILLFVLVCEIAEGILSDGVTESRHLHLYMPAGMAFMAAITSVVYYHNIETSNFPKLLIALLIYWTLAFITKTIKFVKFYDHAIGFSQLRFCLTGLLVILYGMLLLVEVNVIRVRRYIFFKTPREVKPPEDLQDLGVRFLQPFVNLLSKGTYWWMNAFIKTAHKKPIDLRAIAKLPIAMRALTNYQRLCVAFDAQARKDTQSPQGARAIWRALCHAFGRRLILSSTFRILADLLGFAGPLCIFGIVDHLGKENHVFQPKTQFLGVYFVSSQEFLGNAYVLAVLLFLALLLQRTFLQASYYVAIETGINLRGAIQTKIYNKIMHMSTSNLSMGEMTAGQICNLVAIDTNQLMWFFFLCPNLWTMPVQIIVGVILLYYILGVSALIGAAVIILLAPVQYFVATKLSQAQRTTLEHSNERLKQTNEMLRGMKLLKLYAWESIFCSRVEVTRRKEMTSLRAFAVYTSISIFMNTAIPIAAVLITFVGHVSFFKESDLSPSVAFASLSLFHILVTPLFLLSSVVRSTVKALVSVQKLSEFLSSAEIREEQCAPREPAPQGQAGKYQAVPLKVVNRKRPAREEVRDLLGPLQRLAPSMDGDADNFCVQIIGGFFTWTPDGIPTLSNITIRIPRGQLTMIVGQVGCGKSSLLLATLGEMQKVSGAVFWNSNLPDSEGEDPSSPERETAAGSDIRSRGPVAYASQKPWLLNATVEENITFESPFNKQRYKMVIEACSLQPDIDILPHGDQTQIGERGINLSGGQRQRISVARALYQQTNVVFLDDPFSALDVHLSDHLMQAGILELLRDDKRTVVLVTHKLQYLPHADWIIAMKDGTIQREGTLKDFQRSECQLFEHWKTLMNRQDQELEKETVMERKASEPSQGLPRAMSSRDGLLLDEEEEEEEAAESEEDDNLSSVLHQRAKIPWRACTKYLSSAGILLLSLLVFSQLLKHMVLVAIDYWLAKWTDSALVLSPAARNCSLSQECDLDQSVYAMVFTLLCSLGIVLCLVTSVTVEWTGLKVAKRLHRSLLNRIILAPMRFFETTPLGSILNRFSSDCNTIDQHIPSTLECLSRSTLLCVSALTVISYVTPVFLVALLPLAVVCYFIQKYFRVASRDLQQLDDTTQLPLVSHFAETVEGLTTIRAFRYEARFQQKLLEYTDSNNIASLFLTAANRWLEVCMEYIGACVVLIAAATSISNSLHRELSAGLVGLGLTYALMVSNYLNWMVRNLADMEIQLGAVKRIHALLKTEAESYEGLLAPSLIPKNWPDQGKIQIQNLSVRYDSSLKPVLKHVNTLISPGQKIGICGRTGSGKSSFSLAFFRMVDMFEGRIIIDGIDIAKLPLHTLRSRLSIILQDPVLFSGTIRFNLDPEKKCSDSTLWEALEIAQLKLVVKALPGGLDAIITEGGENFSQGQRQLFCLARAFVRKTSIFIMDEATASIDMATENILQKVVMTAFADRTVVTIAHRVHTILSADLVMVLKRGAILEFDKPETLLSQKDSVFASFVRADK
Method: (§1) For electrophysiology experiments, COSm6 cells were co-transfected with various combination of WT or mutant SUR1 and Kir6.2 cDNAs (SUR1 in pECE and Kir6.2 in pCDNA3) along with the cDNA for the Green Fluorescent Protein (to facilitate identification of transfected cells) using FuGENE® 6 (Promega). Mutant SUR1 and Kir6.2 were constructed using QuikChange (mutagenesis primers are shown in Supplementary Table 2). Cells were plated onto glass coverslips 24 h after transfection and recordings made in the following two days. All experiments were performed at room temperature. Micropipettes were pulled from non-heparinized Kimble glass (Fisher Scientific) on a horizontal puller (Sutter Instrument). Electrode resistance was typically 1-2 MΩ when filled with K-INT solution containing 140 mM KCl, 10 mM K-HEPES, 1 mM K-EGTA, 1 mM EDTA, pH 7.3. ATP was added as the potassium salt. Inside-out patches of cells bathed in K-INT were voltage-clamped with an Axopatch 1D amplifier (Axon Instruments). ATP or porcine brain PIP2 (Avanti Polar Lipids; prepared in K-INT and bath sonicated in ice water for 30 min before use) were added to K-INT as specified in the figure legend. All currents were measured at a membrane potential of −50 mV (pipette voltage = +50 mV). Data were analyzed using pCLAMP10 software (Axon Instrument). Off-line analysis was performed using Clampfit and GraphPad. Data were presented as mean ± standard error of the mean (S.E.M). ATP inhibition dose-response curves were obtained by fitting data to the Hill equation (Irel = 1/(1 + ([ATP]/IC50)^H)), where Irel is the current relative to the maximum currents in K-INT solution (expressed as % current in Fig. 7c and Supplementary Fig. 7a), IC50 is the ATP concentration that causes half-maximal inhibition, and H is the Hill coefficient. Note H was allowed to vary for the curves shown in Fig. 7c and Supplementary Fig. 7a.

[1] = molecular target: T2, SUR1/Kir6.2^Q52R/R176A channel (UniProt P70673+Q09427, Q52R/R176A); experiment: as above; assay type: biochemical, rat Kir6.2, hamster SUR1; settings: for % current: mean, relative to maximum current in K-INT
T2 construct: expressed in transfected cells; host or cells: COSm6
T2 sequence (Q09427 whole entry): as above
T2 sequence (P70673 whole entry Q52R/R176A): as the sequence (P70673 whole entry Q52R) above, with R176A counted along it
Method: as §1

[2] = molecular target: T3, SUR1/Kir6.2^R176A channel (UniProt P70673+Q09427, R176A); experiment: as above; assay type: biochemical, rat Kir6.2, hamster SUR1; settings: for % current: mean, relative to maximum current in K-INT
T3 construct: expressed in transfected cells; host or cells: COSm6
T3 sequence (Q09427 whole entry): as the sequence (Q09427 whole entry) above
T3 sequence (P70673 whole entry R176A): as the sequence (P70673 whole entry Q52R) above, with R52Q, R176A counted along it
Method: as §1

[3] = molecular target: T4, SUR1^K134A/Kir6.2 channel (UniProt P70673+Q09427, K134A); experiment: as above; assay type: biochemical, rat Kir6.2, hamster SUR1; settings: for % current: mean, relative to maximum current in K-INT
T4 construct: expressed in transfected cells; host or cells: COSm6
T4 sequence (Q09427 whole entry K134A): as the sequence (Q09427 whole entry) above, with K134A counted along it
T4 sequence (P70673 whole entry): as the sequence (P70673 whole entry Q52R) above, with R52Q counted along it
Method: as §1

[4] = molecular target: T5, SUR1^K134A/Kir6.2^Q52R channel (UniProt P70673+Q09427, K134A/Q52R); experiment: as above; assay type: biochemical, rat Kir6.2, hamster SUR1; settings: for % current: mean, relative to maximum current in K-INT
T5 construct: expressed in transfected cells; host or cells: COSm6
T5 sequence (P70673 whole entry Q52R): as the sequence (P70673 whole entry Q52R) above
T5 sequence (Q09427 whole entry K134A): as the sequence (Q09427 whole entry) above, with K134A counted along it
Method: as §1

[5] = molecular target: T6, SUR1^K134A/Kir6.2^Q52R/R176A channel (UniProt P70673+Q09427, K134A/Q52R/R176A); experiment: as above; assay type: biochemical, rat Kir6.2, hamster SUR1; settings: for % current: relative to maximum current in K-INT
T6 construct: expressed in transfected cells; host or cells: COSm6
T6 sequence (Q09427 whole entry K134A): as the sequence (Q09427 whole entry) above, with K134A counted along it
T6 sequence (P70673 whole entry Q52R/R176A): as the sequence (P70673 whole entry Q52R) above, with R176A counted along it
Method: as §1

SUR1^W51C/Kir6.2 channel = molecular target: T7, SUR1^W51C/Kir6.2 channel (UniProt P70673+Q09427, W51C); experiment: as above; assay type: biochemical, rat Kir6.2, hamster SUR1; settings: for % current: mean, relative to maximum current in K-INT
T7 construct: expressed in transfected cells; host or cells: COSm6
T7 sequence (P70673 whole entry): as the sequence (P70673 whole entry Q52R) above, with R52Q counted along it
T7 sequence (Q09427 whole entry W51C): as the sequence (Q09427 whole entry) above, with W51C counted along it
Method: as §1

[6] = molecular target: T8, SUR1^W51C/Kir6.2^Q52R channel (UniProt P70673+Q09427, Q52R/W51C); experiment: as above; assay type: biochemical, rat Kir6.2, hamster SUR1; settings: for % current: mean, relative to maximum current in K-INT
T8 construct: expressed in transfected cells; host or cells: COSm6
T8 sequence (P70673 whole entry Q52R): as the sequence (P70673 whole entry Q52R) above
T8 sequence (Q09427 whole entry W51C): as the sequence (Q09427 whole entry) above, with W51C counted along it
Method: as §1

[7] = molecular target: T9, WT (SUR1/Kir6.2) KATP channels (UniProt P70673+Q09427); experiment: as above; assay type: biochemical, rat Kir6.2, hamster SUR1; settings: for % current: mean, relative to maximum current in K-INT
T9 construct: expressed in transfected cells; host or cells: COSm6
T9 sequence (P70673 whole entry): as the sequence (P70673 whole entry Q52R) above, with R52Q counted along it
T9 sequence (Q09427 whole entry): as the sequence (Q09427 whole entry) above
Method: as §1

Kir6.2^Q52R KATP channel = tested on: Kir6.2^Q52R KATP channel; design: method as in PMID 16123353, PMID 15583126; settings: Kir6.2^Q52R relative to WT; cited from earlier work
[8] = tested on: KATP channel with engineered Kir6.2-Q52/SUR1-E203 charged amino acid pair; design: method as in PMID 22802363; settings: engineered charged amino acid pair enforcing Kir6.2-Q52 and SUR1-E203 interaction; cited from earlier work
[9] = mean ± SEM, Hill fit, −50 mV, K-INT

With Nc1ncnc2c1ncn2[C@@H]1O[C@H](COP(=O)(O)OP(=O)(O)OP(=O)(O)O)[C@@H](O)[C@H]1O [ATP] the “% current” value (SUR1/Kir6.2^Q52R channel; ATP 10 μM) was 94.34%, the “% current” value (SUR1/Kir6.2^Q52R channel; ATP 100 μM) was 77.97% and the “% current” value (SUR1/Kir6.2^Q52R channel; ATP 200 μM) was 34.77%. The “% current” value (SUR1/Kir6.2^Q52R channel; ATP 1 mM) was 15.08%, the “% current” value (SUR1/Kir6.2^Q52R channel; ATP 2 mM) was 2.12% and the “% current” value (SUR1/Kir6.2^Q52R channel; ATP 5 mM) was 2.88%. For the same compound, the “Hill coefficient (H) of ATP inhibition” value (SUR1/Kir6.2^Q52R channel; Hill fit, H allowed to vary) was 2.34, the IC50 (SUR1/Kir6.2^Q52R channel; [9]) was 161 ± 16.2 µM and the “% current” value ([1]; ATP 1 μM) was 93.65%. For the same compound, the “% current” value ([1]; ATP 10 μM) was 70.34%, the “% current” value ([1]; ATP 100 μM) was 6.88% and the “% current” value ([1]; ATP 200 μM) was 3.51%. The “% current” value ([1]; ATP 1 mM) was 0.92%, the “% current” value ([1]; ATP 2 mM) was 0.12% and the “Hill coefficient (H) of ATP inhibition” value ([1]; Hill fit, H allowed to vary) was 1.41. For the same compound, the IC50 [1, 9] was 18 ± 1.2 µM, the “% current” value ([2]; ATP 1 μM) was 83.45% and the “% current” value ([2]; ATP 10 μM) was 56.97%. For the same compound, the “% current” value ([2]; ATP 100 μM) was 7.94%, the “% current” value ([2]; ATP 1 mM) was 6.02% and the “% current” value ([2]; ATP 2 mM) was 1.48%. For the same compound, the “Hill coefficient (H) of ATP inhibition” value ([2]; Hill fit, H allowed to vary) was 0.84, the IC50 [2, 9] was 11.3 ± 1.95 µM and the “% current” value ([3]; ATP 1 μM) was 90.28%. For the same compound, the “% current” value ([3]; ATP 10 μM) was 19.80%, the “% current” value ([3]; ATP 100 μM) was 5.33% and the “% current” value ([3]; ATP 200 μM) was 0.84%. The “% current” value ([3]; ATP 1 mM) was 0.93%, the “% current” value ([3]; ATP 2 mM) was 0.25% and the “Hill coefficient (H) of ATP inhibition” value ([3]; Hill fit, H allowed to vary) was 1.54. For the same compound, the IC50 [3, 9] was 4.12 ± 0.3 µM, the “% current” value ([4]; ATP 1 μM) was 98.42% and the “% current” value ([4]; ATP 10 μM) was 90.13%. For the same compound, the “% current” value ([4]; ATP 100 μM) was 32.09%, the “% current” value ([4]; ATP 200 μM) was 5.40% and the “% current” value ([4]; ATP 1 mM) was 0.80%. The “% current” value ([4]; ATP 5 mM) was 0.06%, the “Hill coefficient (H) of ATP inhibition” value ([4]; Hill fit, H allowed to vary) was 1.55 and the IC50 [4, 9] was 54.1 ± 7.14 µM. The “% current” value ([5]; ATP 1 μM, one cell) was 40.58%, the “% current” value ([5]; ATP 10 μM, mean) was 44.57% and the “% current” value ([5]; ATP 100 μM, mean) was 4.58%. The “% current” value ([5]; ATP 1 mM, mean) was -0.08%, the “% current” value ([5]; ATP 5 mM, mean) was 0.00% and the “Hill coefficient (H) of ATP inhibition” value ([5]; Hill fit, H allowed to vary) was 1.18. For the same compound, the IC50 [5, 9] was 8.3 ± 1.11 µM, the “% current” value (SUR1^W51C/Kir6.2 channel; ATP 1 μM) was 94.89% and the “% current” value (SUR1^W51C/Kir6.2 channel; ATP 10 μM) was 75.92%. The “% current” value (SUR1^W51C/Kir6.2 channel; ATP 100 μM) was 6.20%, the “% current” value (SUR1^W51C/Kir6.2 channel; ATP 200 μM) was 6.36% and the “% current” value (SUR1^W51C/Kir6.2 channel; ATP 1 mM) was 1.93%. For the same compound, the “% current” value (SUR1^W51C/Kir6.2 channel; ATP 2 mM) was 3.08%, the “% current” value (SUR1^W51C/Kir6.2 channel; ATP 5 mM) was 0% and the IC50 (SUR1^W51C/Kir6.2 channel; [9]) was 20.9 ± 1.96 µM. The “% current” value ([6]; ATP 1 μM) was 97.59%, the “% current” value ([6]; ATP 10 μM) was 45.50% and the “% current” value ([6]; ATP 100 μM) was 6.41%. The “% current” value ([6]; ATP 1 mM) was 1.99%, the “% current” value ([6]; ATP 2 mM) was 0.62% and the “% current” value ([6]; ATP 5 mM) was 1.82%. The IC50 [6, 9] was 8.98 ± 0.49 µM, the “% current” value ([7]; ATP 1 μM) was 84.78% and the “% current” value ([7]; ATP 10 μM) was 39.13%. The “% current” value ([7]; ATP 100 μM) was 7.09%, the “% current” value ([7]; ATP 200 μM) was 3.13% and the “% current” value ([7]; ATP 1 mM) was 4.17%. The “% current” value ([7]; ATP 2 mM) was 0.65%, the “% current” value ([7]; ATP 5 mM) was 2.98% and the “Hill coefficient (H) of ATP inhibition” value ([7]; Hill fit, H allowed to vary) was 0.93. For the same compound, the IC50 [7, 9] was 6.25 ± 0.44 µM, the “decrease in channel sensitivity to ATP inhibition” value (Kir6.2^Q52R KATP channel) was 20 fold and the “reduction of ATP inhibition IC50” value [8] was 100 fold.
